TGI and GI50 data for two compounds are collected here from PubChem BioAssay (NCI).

Some test systems named below: TK-10 renal; MALME-3M melanoma; NCI-H226 lung; OVCAR-3 ovarian; OVCAR-5 ovarian; SK-MEL-2 melanoma; UO-31 renal; UACC-62 melanoma; IGROV1 ovarian; SK-MEL-28 melanoma.
Assay in all cases: NCI anticancer screen, dose series, 48 h

Each structure is given as a SMILES string.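 Following 48 hours of exposure in 96-well plates, responses at five concentrations were used to interpolate endpoints linearly. GI50: concentration for 50% inhibition of growth. The concentration for full growth arrest is given as TGI.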 A value given as a limit tells only on which side of the number the result lay.

In the case of `C=C1CC[C@@]2(C)[C@@H]([C@@H]1C)[C@H]1CC[C@@H]3[C@@]4(C)CC[C@H](O)C(C)(C)[C@@H]4CC[C@@]3(C)[C@]1(C)C[C@@H]2O`, the TGI in the assay with TK-10 renal was 27 µM; in the assay on MALME-3M melanoma, 12.3 µM; in the assay with NCI-H226 lung, 40.1 µM; with OVCAR-3 ovarian, 16.1 µM; in the assay with OVCAR-5 ovarian it was 17.7 µM; in the assay with SK-MEL-2 melanoma, 12.7 µM. Also, the TGI came out at 5.67 µM in the assay on UO-31 renal, 28.2 µM in the assay with UACC-62 melanoma, 3.77 µM in the assay with IGROV1 ovarian and 20.3 µM in the assay with SK-MEL-28 melanoma.

Regarding `O=C([CH-]C(=O)c1ccccc1)c1ccccc1.[C-]#[O+].[C-]#[O+].[Ir]`, the GI50 with TK-10 renal is above 100 µM; in the assay with MALME-3M melanoma it was above 100 µM; in the assay with NCI-H226 lung, 33.3 µM; in the assay on OVCAR-3 ovarian it was above 100 µM; in the assay with OVCAR-5 ovarian, above 100 µM; with SK-MEL-2 melanoma it was above 100 µM. In addition, the GI50 is 45.2 µM in the assay on UO-31 renal, 42.1 µM in the assay on UACC-62 melanoma, 88.3 µM in the assay with IGROV1 ovarian and 87 µM in the assay with SK-MEL-28 melanoma. Besides, the TGI with TK-10 renal, with MALME-3M melanoma, with NCI-H226 lung, in the assay on OVCAR-3 ovarian, in the assay with OVCAR-5 ovarian and with SK-MEL-2 melanoma was above 100 µM throughout. For the same compound, the TGI in the assay on UO-31 renal, in the assay with UACC-62 melanoma, in the assay with IGROV1 ovarian and in the assay on SK-MEL-28 melanoma was above 100 µM throughout.
